Patent US20130203718A1 (priority 2010, published 2013)

What was measured:
hAR = molecular target: T1, hAR (Homo sapiens, UniProt P10275); experiment: APRn selectivity: transactivation in HEK293T cells transiently expressing hAR; assay type: cell-based
T1 construct: expressed in transfected cells; host or cells: HEK 293T
T1 sequence (P10275 1-920): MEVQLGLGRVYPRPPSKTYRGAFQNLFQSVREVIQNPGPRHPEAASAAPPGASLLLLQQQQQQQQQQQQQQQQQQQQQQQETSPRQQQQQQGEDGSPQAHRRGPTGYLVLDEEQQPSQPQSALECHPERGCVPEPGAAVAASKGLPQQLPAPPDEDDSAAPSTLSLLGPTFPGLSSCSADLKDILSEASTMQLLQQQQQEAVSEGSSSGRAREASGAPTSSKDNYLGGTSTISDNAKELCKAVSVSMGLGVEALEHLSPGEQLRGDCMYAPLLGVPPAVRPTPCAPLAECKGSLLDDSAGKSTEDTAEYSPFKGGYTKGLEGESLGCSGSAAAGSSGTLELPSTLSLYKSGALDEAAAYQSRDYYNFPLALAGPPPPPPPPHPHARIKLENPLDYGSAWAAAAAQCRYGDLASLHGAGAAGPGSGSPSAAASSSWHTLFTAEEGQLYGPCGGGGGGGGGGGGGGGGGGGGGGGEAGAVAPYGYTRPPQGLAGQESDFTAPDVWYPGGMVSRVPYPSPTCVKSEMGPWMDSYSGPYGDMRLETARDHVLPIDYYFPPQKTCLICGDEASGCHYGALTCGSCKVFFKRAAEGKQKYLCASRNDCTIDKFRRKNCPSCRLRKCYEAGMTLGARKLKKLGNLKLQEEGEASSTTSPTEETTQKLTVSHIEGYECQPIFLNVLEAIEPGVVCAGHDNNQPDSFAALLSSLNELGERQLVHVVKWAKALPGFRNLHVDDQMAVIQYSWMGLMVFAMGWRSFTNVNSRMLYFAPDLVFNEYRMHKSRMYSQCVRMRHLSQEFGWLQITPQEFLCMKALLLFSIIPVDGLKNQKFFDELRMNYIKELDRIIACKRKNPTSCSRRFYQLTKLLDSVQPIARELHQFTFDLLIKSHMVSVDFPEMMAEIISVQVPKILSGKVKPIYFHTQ
Protocol: (§1) Measurement of the APRn Selectivity in HEK 293T.
(§2) The HEK-293T cells were cultured and transfected according to the method described above for the PR transactivation assays. The expression vectors pcDNA-hAR, kindly provided by G. A. Coetzee, pchGR (Hellal-Levy, C et al. FEBS Lett 1999, 464, 9), and pchMR (Fagart, J. et al. EMBO J. 1998, 17, 3317) were used for studying the ability of APRn to activate or inactivate the AR, GR and MR, respectively. For each transfection assays, 2 μg of the expression vector was used together with 7 μg of the GRE2-Luc reporter vector. Dihydrotestosterone (DHT), dexamethasone (Dex) and Aldosterone (Aldo) were selected as AR, GR and MR ligands, respectively. They were used at the concentration of 10^−9 M. The APRn agonist and antagonist efficacy for AR, GR and MR were measured as described above for PR. The results are the mean±SEM of three independent experiments.
(§3) Transfection assays were performed in HEK 293T cells by using expression vectors for the hAR, hGR and hMR and the GRE2-Luc reporter used for the PR transactivation assays.

hMR = molecular target: T2, hMR (Homo sapiens, UniProt P08235); experiment: APRn selectivity: transactivation in HEK293T cells transiently expressing hMR; assay type: cell-based; details: mean±SEM; for MR Antagonist efficacy (%): aldosterone 10^−9 M
T2 construct: expressed in transfected cells; host or cells: HEK 293T
T2 sequence (P08235 1-984): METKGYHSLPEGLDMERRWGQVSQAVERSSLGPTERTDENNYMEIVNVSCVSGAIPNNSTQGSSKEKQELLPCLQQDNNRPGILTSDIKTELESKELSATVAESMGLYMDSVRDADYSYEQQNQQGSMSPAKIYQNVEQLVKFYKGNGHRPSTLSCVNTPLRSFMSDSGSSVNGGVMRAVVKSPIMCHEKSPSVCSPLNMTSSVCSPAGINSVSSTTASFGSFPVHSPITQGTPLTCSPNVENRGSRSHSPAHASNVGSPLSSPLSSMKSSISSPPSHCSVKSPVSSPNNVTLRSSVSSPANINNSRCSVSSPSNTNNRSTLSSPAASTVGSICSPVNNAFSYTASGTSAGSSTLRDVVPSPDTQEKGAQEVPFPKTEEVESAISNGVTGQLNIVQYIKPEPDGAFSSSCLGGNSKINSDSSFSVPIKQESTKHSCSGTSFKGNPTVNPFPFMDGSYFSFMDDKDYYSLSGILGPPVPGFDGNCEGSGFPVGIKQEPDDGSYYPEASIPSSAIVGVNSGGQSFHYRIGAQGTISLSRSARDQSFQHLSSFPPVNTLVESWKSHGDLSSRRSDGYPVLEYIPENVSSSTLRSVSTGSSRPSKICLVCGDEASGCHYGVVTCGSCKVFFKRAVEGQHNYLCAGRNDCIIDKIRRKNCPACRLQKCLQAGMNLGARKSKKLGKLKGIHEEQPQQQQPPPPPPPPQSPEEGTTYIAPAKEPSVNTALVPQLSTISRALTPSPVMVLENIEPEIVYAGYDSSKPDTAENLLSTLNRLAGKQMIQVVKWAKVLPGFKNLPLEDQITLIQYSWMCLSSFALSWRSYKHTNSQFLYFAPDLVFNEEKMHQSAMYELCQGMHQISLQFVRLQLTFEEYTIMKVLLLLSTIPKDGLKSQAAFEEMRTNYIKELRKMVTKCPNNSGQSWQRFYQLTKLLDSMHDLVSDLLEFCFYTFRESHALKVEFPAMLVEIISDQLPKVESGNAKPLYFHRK
Protocol: as §1, §2, §3

hGR = molecular target: T3, hGR (Homo sapiens, UniProt P04150); experiment: APRn selectivity: transactivation in HEK293T cells transiently expressing hGR; assay type: cell-based; details: HEK293T transiently expressing hGR, mean±SEM; for GR Antagonist efficacy (%): dexamethasone 10^−9 M; for Emax: HEK-293T, read-out: GR Agonist efficacy (%)
T3 construct: expressed in transfected cells; host or cells: HEK 293T
T3 sequence (P04150 1-777): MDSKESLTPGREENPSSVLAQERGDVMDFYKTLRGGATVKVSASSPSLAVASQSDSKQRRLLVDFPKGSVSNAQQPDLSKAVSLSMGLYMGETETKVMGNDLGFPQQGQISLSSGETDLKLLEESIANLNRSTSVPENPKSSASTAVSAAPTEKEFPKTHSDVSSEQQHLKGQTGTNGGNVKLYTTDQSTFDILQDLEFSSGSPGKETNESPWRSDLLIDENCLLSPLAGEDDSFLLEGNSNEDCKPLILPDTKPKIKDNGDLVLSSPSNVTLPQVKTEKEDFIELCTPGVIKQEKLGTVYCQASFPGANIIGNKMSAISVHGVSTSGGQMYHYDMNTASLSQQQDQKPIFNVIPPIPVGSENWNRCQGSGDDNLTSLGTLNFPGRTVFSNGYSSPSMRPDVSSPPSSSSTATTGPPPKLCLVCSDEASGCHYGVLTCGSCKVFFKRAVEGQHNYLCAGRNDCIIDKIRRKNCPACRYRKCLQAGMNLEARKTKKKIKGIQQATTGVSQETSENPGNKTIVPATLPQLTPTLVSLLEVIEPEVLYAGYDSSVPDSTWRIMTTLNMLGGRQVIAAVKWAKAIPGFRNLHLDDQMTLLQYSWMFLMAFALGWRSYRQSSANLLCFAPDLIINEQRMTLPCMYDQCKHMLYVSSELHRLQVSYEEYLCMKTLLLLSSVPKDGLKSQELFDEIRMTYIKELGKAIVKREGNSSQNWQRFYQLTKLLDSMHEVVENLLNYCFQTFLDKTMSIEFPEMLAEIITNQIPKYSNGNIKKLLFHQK
Protocol: as §1, §2, §3

CC(=O)[C@H]1CC[C@H]2[C@@H]3CC[C@H]4C[C@@H](F)CC[C@]4(C)[C@H]3CC[C@]12C [APR-17, 3β-Fluoro-5α-pregnan-20-one]
agonist efficacy towards hAR (in words) (hAR; HEK293T, FIG. 11): low agonist efficacy | selectivity for hPR vs hAR, hGR and hMR (in words) (hAR; conclusion from hAR, hGR and hMR transactivation assays): selective hPR antagonists | melting point: 154 to 155 °C

C[C@]12CC[C@H](F)C[C@@H]1CC[C@@H]1[C@@H]2CC[C@]2(C)[C@@H](O)CC[C@@H]12 [APR-40, 3β-Fluoro-5α-androstan-17β-ol]
melting point: 150 to 151 °C | MR Antagonist efficacy (%) (hMR): 0.4 ± 2.6% | MR Agonist efficacy (%) (hMR): 0.57 ± 0.05% | GR Antagonist efficacy (%) (hGR): 5.5 ± 3.9% | Emax (hGR): 0.3 ± 0.06%

CC#C[C@]1(O)CCC2C3CC=C4C[C@@H](F)CC[C@]4(C)C3CC[C@@]21C (stereo partly drawn) [APR-44, 31-Fluoro-17α-(1-propynyl)androst-5-en-17β-ol]
melting point: 136 to 137 °C | MR Antagonist efficacy (%) (hMR): 1.6 ± 5.5% | MR Agonist efficacy (%) (hMR): 0.47 ± 0.10% | GR Antagonist efficacy (%) (hGR): 2.0 ± 2.8% | Emax (hGR): 0.2 ± 0.1%
